# Test results as given in patent US6361792B1, “Lipid dispersions and methods of use” (Alliance Pharmaceutical Corp., priority 1987, dated 2002).
# Entries after “also recorded” stand apart in the source; their conditions may differ.
# Tests used:
# [1] = tested on: anesthetized swine; experiment: Prophylaxis of the acute hemodynamic response to intravenous fluorocarbon emulsion with cyclooxygenase inhibitors
# Source text: All animals were fully anesthetized (ketamine-sodium pentobarbital), placed on positive pressure ventilation, and instrumented for determination of pulmonary artery pressure, cardiac output, ECG (electrocardiogram), right atrial pressure, and whole blood samples collections. Changes in skin color were also quantified using a relative color scale ranging from normal (light pink) to darker shades of pink and purple. Continuous electrocardiographs and oscillographic recordings of blood pressures were made. At least 30 minutes of baseline data were collected before intravascular administration of the substances. After control recordings, infusion of the pigs was carried out with 3 ml/kg body weight of either fluorocarbon emulsion as Imagent®BP (90% or 100% perfluorooctylbromide) or saline at a rate of 2 ml/min i.v. over 15 minutes.
# A series of experiments was conducted to evaluate the effects of prophylactic treatment with cyclooxygenase inhibitors on the acute hemodynamic response to intravenous injection of 90% Imagent®BP in anesthetized swine. […] Animals receiving prophylaxis were administered indomethacin (0.5 mg/kg p.o.) prior to administration of the test article. Test swine were treated prophylactically with indomethacin, ibuprofen and aspirin.
# [2] = tested on: tumor-bearing animals; settings: cited from earlier work
# [3] = tested on: conscious swine; experiment: Delayed febrile response (core body temperature) to intravenous lipid dispersion in conscious swine, with or without prophylaxis; format: in vivo; settings: for effect on febrile reaction to fluorocarbon emulsion: prophylactic treatment, dose not given
# Procedure: Swine were instrumented 48 hours prior to study for determination of core body temperature using a catheter-tipped thermistor, and for intravenous injection using an axillary vein catheter. On the day of study, core body temperature was determined at baseline and at regular intervals for 6 h after intravenous injection of Imagent®BP.
# [4] = target: T1, thromboxane synthetase (Rattus norvegicus, UniProt P49430); settings: in the rat; cited from earlier work
# T1 sequence (P49430 1-533): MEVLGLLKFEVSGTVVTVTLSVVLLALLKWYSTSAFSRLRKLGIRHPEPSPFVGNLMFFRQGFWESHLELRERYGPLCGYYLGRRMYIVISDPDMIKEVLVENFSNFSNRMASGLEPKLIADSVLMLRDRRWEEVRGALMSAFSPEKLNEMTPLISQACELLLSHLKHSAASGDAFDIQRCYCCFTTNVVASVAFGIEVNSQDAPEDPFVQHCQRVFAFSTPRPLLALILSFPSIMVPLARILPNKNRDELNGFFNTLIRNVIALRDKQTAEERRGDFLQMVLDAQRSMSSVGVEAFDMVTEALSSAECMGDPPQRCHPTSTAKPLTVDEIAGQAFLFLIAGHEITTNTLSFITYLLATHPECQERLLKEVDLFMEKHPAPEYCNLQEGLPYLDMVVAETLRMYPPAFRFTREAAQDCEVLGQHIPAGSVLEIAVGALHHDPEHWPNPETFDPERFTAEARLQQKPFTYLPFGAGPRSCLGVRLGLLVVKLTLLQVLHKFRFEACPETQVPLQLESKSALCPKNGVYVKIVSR
molecule,measurement,setting,value
"CC(C)Cc1ccc(C(C)C(=O)O)cc1 (racemic) [ibuprofen, (±)-2-(p-isobutylphenyl)propionic acid]",effect on acute hemodynamic response (mPAP) to Imagent BP,"[1]; oral 20 mg/kg 1 h before Imagent BP 3 ml/kg i.v., 20 mg/kg",prevent the acute hemodynamic response
same,effect on acute hemodynamic response (mPAP) to Imagent BP,"[1]; oral 20 mg/kg 1 h before Imagent BP 3 ml/kg i.v., listed as Ibuprofen, 20 mg/kg",significantly attenuated the mPAP responses
same,symptoms in reaction to intravenous fluorocarbon emulsion,[2],alleviated
same,effect on febrile response to Imagent BP,"[3]; oral 20 mg/kg 1 h before injection, 6 h time course",significantly suppressed
Cn1ccnc1 [1-methyl-imidazole],inhibition of thromboxane synthetase,[4],act effectively to inhibit thromboxane synthetase
"O=C(O)CCCCCc1cccc2cncn12 [CGS 13080, imidazo(1,5-pyridine-5-hexanoic acid)]",inhibition of thromboxane synthetase,[4],act effectively to inhibit thromboxane synthetase
O=C(O)CCCCCCCn1ccnc1 [N(7-carboxyheptyl)imidazole],inhibition of thromboxane synthetase,[4],act effectively to inhibit thromboxane synthetase
CC(=O)Nc1ccc(O)cc1 [acetaminophen],effect on febrile reaction to fluorocarbon emulsion,[3],not prevented
"CC(=O)Oc1ccccc1C(=O)O [aspirin, acetylsalicylic acid]",effect on increased mPAP response to Fluosol (20% fluorocarbon emulsion),"[1]; aspirin pretreatment vs Fluosol alone, FIG. 2",decreased response
same,"blood cell counts (erythrocytes, leukocytes, platelets) after Imagent BP","[1]; aspirin prophylaxis, oral 5 mg/kg 1 h before",nearly identical to that seen with the saline control
same,effect on acute hemodynamic response (mPAP) to Imagent BP,"[1]; oral 5 mg/kg 1 h before Imagent BP (90%) 3 ml/kg i.v., 5 mg/kg",prevent the acute hemodynamic response; also recorded: appeared to completely block any increases in mPAP
same,effect on febrile reaction to fluorocarbon emulsion,[3],not prevented
"O=C(O)c1ccc(OCCn2ccnc2)cc1 [dazoxiben, 4-(2-(1 H-imidazol-1 yl)ethoxy)benzoic acid]",inhibition of thromboxane synthetase,[4],act effectively to inhibit thromboxane synthetase
"COc1ccc2c(c1)c(CC(=O)O)c(C)n2C(=O)c1ccc(Cl)cc1 [indomethacin, 1-(pchlorobenzoyl)-5-methoxy-2-methylindole-3-acetic acid]",effect on acute hemodynamic response (mPAP) to Imagent BP,"[1]; indomethacin i.v. bolus 10 mg/kg then 6 mg/kg/hr, Imagent BP 90% 3 ml/kg i.v.",prevent the acute hemodynamic response; also recorded: virtually prevented all of the hemodynamic reactions
COc1ccc2cc([C@H](C)C(=O)O)ccc2c1 [naproxen],effect on febrile response to Imagent BP,"[3]; oral 5 mg/kg 1 h before injection (naproxen), 5 mg/kg",attenuated febrile response
methylprednisone,effect on febrile response to Imagent BP,"[3]; oral 5 mg/kg 12 h and 2 h before injection (methylprednisone), 5 mg/kg",attenuated febrile response
same,effect on febrile response to Imagent BP,"[3]; oral 5 mg/kg 12 h and 2 h before injection (methylprednisone), listed as Methylprednisone, 5 mg/kg",attenuates the response
